Measured values taken from the NIST ThermoML archive (doi:10.1021/je300670n).

Legend:
[1] = Liquid; for mass density: 298.15 K, 101.33 kPa, Vibrating tube method; for vapor or sublimation pressure: Ebulliometric method (Recirculating still)
[2] = refractive index (Na D-line) (dimensionless); settings: 101.33 kPa, Liquid, Standard Abbe refractometry
[3] = excess molar enthalpy (molar enthalpy of mixing); xn = mol fraction of the nth substance listed; settings: 298.15 K, 101 kPa, Liquid, Flow calorimetry
[4] = xn = mol fraction of the nth substance listed; settings: 101 kPa, Liquid, Vibrating tube method

CCCCO [butan-1-ol]
Settings	mass density [kg/m3]
[1]	805.97

Settings	refractive index	vapor or sublimation pressure [kPa]
[1], 345.91 K	–	15.6
[1], 358.05 K	–	27.4
[1], 359.46 K	–	29.4
[1], 366.26 K	–	39.3
[1], 369.57 K	–	45.1
[1], 372.02 K	–	49.8
[1], 374.43 K	–	54.9
[1], 376.72 K	–	60.1
[1], 378.46 K	–	64.2
[1], 380.74 K	–	70.2
[1], 382.55 K	–	75.1
[1], 384.3 K	–	80.1
[1], 385.78 K	–	84.6
[1], 390.41 K	–	100
[2], 298.15 K	1.3972	–

CCC(C)O (configuration not stated) [butan-2-ol]
Settings	mass density [kg/m3]
[1]	802.71

Settings	refractive index	vapor or sublimation pressure [kPa]
[1], 330.11 K	–	15.7
[1], 337.99 K	–	23.3
[1], 345.15 K	–	32.7
[1], 354.49 K	–	49.4
[1], 357.15 K	–	55.3
[1], 358.16 K	–	57.3
[1], 358.98 K	–	59.6
[1], 362.88 K	–	69.9
[1], 365.08 K	–	76.3
[1], 366.13 K	–	79.5
[1], 367.13 K	–	82.9
[1], 371.51 K	–	98.3
[1], 372.43 K	–	100.6
[2], 298.15 K	1.3951	–

CCOC(C)(C)CC [1,1-dimethylpropyl ethyl ether] + CCCCO
[3]
Settings	excess molar enthalpy [kJ/mol]
x1 = 0.101	0.119
x1 = 0.2005	0.251
x1 = 0.3022	0.379
x1 = 0.401	0.485
x1 = 0.5023	0.567
x1 = 0.6005	0.613
x1 = 0.7009	0.616
x1 = 0.7999	0.556
x1 = 0.902	0.382

mass density [kg/m3], [4]
Settings	x1 = 0.101	x1 = 0.2005	x1 = 0.3022	x1 = 0.401	x1 = 0.5023	x1 = 0.6005	x1 = 0.7009	x1 = 0.7999	x1 = 0.902
297.7 K	801	796.1	–	786.6	782	–	–	–	764.8
297.71 K	–	–	791.1	–	–	777.5	773.3	769.2	–

CCC(C)(C)O [2-methylbutan-2-ol]
Settings	mass density [kg/m3]
[1]	805.29

Settings	refractive index	vapor or sublimation pressure [kPa]
[1], 334.98 K	–	18.8
[1], 344.45 K	–	29.4
[1], 351.18 K	–	39.5
[1], 354.1 K	–	44.7
[1], 356.81 K	–	50.1
[1], 358.12 K	–	52.8
[1], 359.14 K	–	55
[1], 361.21 K	–	59.7
[1], 363.43 K	–	65.2
[1], 365.23 K	–	69.8
[1], 367.1 K	–	75
[1], 368.88 K	–	80.1
[1], 371.04 K	–	86.7
[1], 375.78 K	–	102.7
[2], 298.15 K	1.40248	–

CCOC(C)(C)CC [1,1-dimethylpropyl ethyl ether]
Settings	mass density [kg/m3]
[1]	760.52

Settings	refractive index	vapor or sublimation pressure [kPa]
[1], 324.31 K	–	17.7
[1], 331.83 K	–	24
[1], 343.83 K	–	37.6
[1], 345.82 K	–	40.3
[1], 349.21 K	–	45.4
[1], 351.71 K	–	49.5
[1], 355.12 K	–	55.5
[1], 357.39 K	–	59.9
[1], 358.01 K	–	61
[1], 358.09 K	–	61.3
[1], 359.96 K	–	65.1
[1], 362.13 K	–	69.7
[1], 364.42 K	–	74.9
[1], 366.44 K	–	79.6
[1], 367.36 K	–	81.8
[1], 368.16 K	–	83.8
[1], 373.7 K	–	98.9
[1], 374.41 K	–	101
[2], 293.15 K	1.39112	–
[2], 298.15 K	1.38858	–

CCOC(C)(C)CC [1,1-dimethylpropyl ethyl ether] + CCC(C)O
[3]
Settings	excess molar enthalpy [kJ/mol]
x1 = 0.1011	0.271
x1 = 0.2007	0.516
x1 = 0.3008	0.719
x1 = 0.4013	0.868
x1 = 0.5005	0.958
x1 = 0.6008	0.986
x1 = 0.7012	0.945
x1 = 0.8001	0.819
x1 = 0.899	0.557

[4]
Settings	mass density [kg/m3]
297.67 K, x1 = 0.7012	770.2
297.67 K, x1 = 0.8001	766.9
297.68 K, x1 = 0.5005	777.9
297.68 K, x1 = 0.6008	774
297.68 K, x1 = 0.899	763.8
297.69 K, x1 = 0.1011	796.8
297.69 K, x1 = 0.2007	791.6
297.69 K, x1 = 0.3008	786.6
297.69 K, x1 = 0.4013	782

CCOC(C)(C)CC [1,1-dimethylpropyl ethyl ether] + CCC(C)(C)O
[3]
Settings	excess molar enthalpy [kJ/mol]
x1 = 0.1005	0.236
x1 = 0.2006	0.448
x1 = 0.3013	0.632
x1 = 0.4018	0.781
x1 = 0.5013	0.894
x1 = 0.601	0.961
x1 = 0.7003	0.973
x1 = 0.8011	0.9
x1 = 0.9003	0.664

[4]
Settings	mass density [kg/m3]
297.7 K, x1 = 0.1005	798.8
297.71 K, x1 = 0.2006	793.2
297.71 K, x1 = 0.3013	788.2
297.71 K, x1 = 0.4018	783.4
297.71 K, x1 = 0.5013	778.9
297.71 K, x1 = 0.601	774.7
297.71 K, x1 = 0.7003	770.9
297.71 K, x1 = 0.8011	767.1
297.72 K, x1 = 0.9003	763.7
